Values of other authors, collected in patent publication US9945862B2, “Biomarkers for predicting and assessing responsiveness of thyroid and kidney cancer subjects to lenvatinib compounds” (Eisai R&D Management Co., Ltd., priority 2011, dated 2018).

Test system: xenograft models of various tumors
Settings: by inhibiting angiogenesis; cited from earlier work

For `COc1cc2nccc(Oc3ccc(NC(=O)NC4CC4)c(Cl)c3)c2cc1C(N)=O` [Lenvatinib, 4-(3-chloro-4(cyclopropylaminocarbonyl)aminophenoxy)-7-methoxy-6-quinolinecarboxamide], the Anti-tumor effect is listed as “potent anti-tumor effects”.
